Structures can show the parent of a compound that is named as a salt. Where two headings read alike, the source gives them in different places.

25 compounds from patent US10201546B2, “Quinolinyl modulators of RORγt” (Janssen Pharmaceutica NV, priority 2013, dated 2019) can be followed below.

Test [1] deals with IL-17 production by CD4+ T cells under conditions which favor Th17 differentiation. Briefly: Human Th17 assay (IL-17 production by CD4 T cells). It counts as cell-based. The following applies: Homo sapiens.
Protocol: The human Th17 assay tests the effect of RORγt modulatory compounds on IL-17 production by CD4 T cells under conditions which favor Th17 differentiation. Total CD4^+ T cells were isolated from the peripheral blood mononuclear cells (PBMC) of healthy donors using a CD4^+ T cell isolation kit II, following the manufacturer's instructions (Miltenyi Biotec). […] 50 μL of compound at titrated concentrations in DMSO were added into each well at final DMSO concentration at 0.2%. Cells were incubated for 1 hour, then 50 μL of Th17 cell differentiation medium was added to each well. The final concentrations of antibodies and cytokines (R&D Systems) in differentiation medium were: 3×10^6/mL anti-CD3/CD28 beads (prepared using human T cell activation/expansion kit, Miltenyi Biotec), 10 μg/mL anti-IL4, 10 μg/mL anti-IFNγ, 10 ng/mL IL113, 10 ng/mL IL23, 50 ng/mL IL6, 3 ng/mL TGFβ and 20 U/mL IL2. Cells were cultured at 37° C. and 5% CO2 for 3 days. Supernatants were collected and the accumulated IL-17 in culture was measured by using MULTI-SPOT® Cytokine Plate following manufacture's instruction (Meso Scale Discovery). The plate was read using Sector Imager 6000, and IL-17 concentration was extrapolated from the standard curve. The IC50s were determined by GraphPad.
Test [2] deals with human RORγt ligand binding domain (RORγt LBD) (Homo sapiens (Human), UniProt P51449). The test is described as follows: RORγt ThermoFluor assay (thermal shift, binding affinity Kd). (DSF heats the sample and reads unfolding from a dye or from intrinsic fluorescence.)
Chain of human RORγt ligand binding domain (RORγt LBD) (P51449 other isoform, or with tags, fused parts or gaps): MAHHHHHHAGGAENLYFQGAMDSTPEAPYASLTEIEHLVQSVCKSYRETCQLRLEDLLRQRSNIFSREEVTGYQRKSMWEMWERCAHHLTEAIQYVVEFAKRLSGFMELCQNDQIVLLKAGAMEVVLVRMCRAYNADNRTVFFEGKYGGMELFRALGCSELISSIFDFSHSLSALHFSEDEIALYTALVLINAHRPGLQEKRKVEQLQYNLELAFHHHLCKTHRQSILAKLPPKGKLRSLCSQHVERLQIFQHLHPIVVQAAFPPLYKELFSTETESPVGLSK
Test [3] addresses human RORγt LBD fused to the DNA binding domain of the GAL4 protein (Homo sapiens (Human), UniProt P51449). The test is described as follows: RORγt (LBD) reporter assay in HEK293T cells. It counts as cell-based. Conditions: for inhibition at 6 µM: HEK-293T, read-out: RORγt (LBD) Reporter Assay, % inhibition @ 6 μM, @ 6 μM. More on the design: RORγt (LBD) Reporter Assay, % inhibition: dose or concentration left out as unconfirmed.
Description: A reporter assay was used to test functional activity of RORγt modulatory compounds on transcriptional activation driven by the RORγt LBD. Cells used in the assay were co-transfected with two constructs. The first construct, pBIND-RORγt LBD, contained the wild type human RORγt LBD fused to the DNA binding domain of the GAL4 protein. The second construct, pGL4.31 (Promega Cat no. C935A), contained multiple GAL4 responsive DNA elements upstream of firefly luciferase.
The pBIND vector contains the GAL4 DNA Binding Domain (GAL4 DBD) and the renilla luciferase gene under control of the SV40 promoter. Renilla luciferase expression serves as a control for transfection efficiency and cell viability.
The reporter assay was performed by transiently transfecting HEK293T cells with 5 μg of pBIND-RORγt LBD or pBIND-RORγt LBD-AF2 and 5 μg pGL4.31 (Promega Cat no. C935A) using Fugene 6 (Invitrogen Cat no. E2691) at a 1:6 ratio of DNA:Fugene 6 in a T-75 flask in which cells were at least 80% confluent. Twenty four hours after bulk transfection, cells were plated into 96-well plates at 50,000 cells/well in phenol-red free DMEM containing 5% Lipid Reduced FCS and Pen/Strep. Six hours after plating, cells were treated with compounds for 24 hours. Media was removed and cells were lysed with 50 μL 1× Glo Lysis Buffer (Promega). Dual Glo Luciferase Reagent (50 μL/well) was then added and firefly luciferase luminescence was read on an Envision after a ten minute incubation. Finally, Stop and Glo reagent (50 L/well) was added and renilla luciferase luminescence was read on an Envision after a ten minute incubation. To calculate the effect of compounds on RORγt activity, the ratio of firefly to renilla luciferase was determined and plotted against compound concentration. Agonist compounds increase RORγt-driven luciferase expression, and antagonist or inverse agonist compounds decrease luciferase expression.

Where [4] appears, read: read-out: ThermoFluor Assay, Kd.
Where [5] appears, read: read-out: ThermoFluor ® Assay, Kd.

Chain of human RORγt LBD fused to the DNA binding domain of the GAL4 protein (P51449 258-518): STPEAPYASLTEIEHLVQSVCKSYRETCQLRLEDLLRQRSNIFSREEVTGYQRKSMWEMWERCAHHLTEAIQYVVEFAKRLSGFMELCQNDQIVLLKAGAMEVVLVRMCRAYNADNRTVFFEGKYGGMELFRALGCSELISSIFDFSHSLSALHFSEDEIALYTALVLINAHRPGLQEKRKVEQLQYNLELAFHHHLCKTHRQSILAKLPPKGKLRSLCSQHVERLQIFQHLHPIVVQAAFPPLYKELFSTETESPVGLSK

In test [1], `COc1nc2ccc(C(O)(c3ccccc3)C3CCN(C(C)=O)CC3)cc2c(Cl)c1C1CCOCC1` (single isomer, unassigned) [Example 7b, 1-(4-((4-Chloro-2-methoxy-3-(tetrahydro-2H-pyran-4-yl)quinolin-6-yl)(hydroxy)(phenyl)methyl)piperidin-1-yl)ethanone] yielded an IC50 of 210 nM. Same read-out and setting: under `COc1nc2ccc(C(O)(c3sc(C)nc3C)c3cnnn3C)cc2c(Cl)c1C` (single isomer, unassigned) [Example 13c, (4-Chloro-2-methoxy-3-methylquinolin-6-yl)(2,4-dimethylthiazol-5-yl)(1-methyl-1H-1,2,3-triazol-5-yl)methanol] stands 65 nM; under `Cc1nc(C)c(C(O)(c2ccc3nc(N4CCC4)c(OC(C)C)c(Cl)c3c2)c2cnnn2C)s1` (single isomer, unassigned) [Example 82c, [2-Azetidin-1-yl-4-chloro-3-(1-methylethoxy)quinolin-6-yl](2,4-dimethyl-1,3-thiazol-5-yl)(1-methyl-1H-1,2,3-triazol-5-yl)methanol], 1.2 nM; under `COc1nc2ccc(C(O)(c3ccccc3)C3CCN(C(C)=O)CC3)cc2c(Cl)c1OC(C)C` (single isomer, unassigned) [Example 84b, (1-Acetylpiperidin-4-yl)[4-chloro-2-methoxy-3-(1-methylethoxy)quinolin-6-yl]phenylmethanol], 5.4 nM. In test [1], `COc1nc2ccc(C(O)(c3ccc(Cl)cc3)c3cncn3C)cc2c(Cl)c1OCC(F)(F)F` (single isomer, unassigned) [Example 86c, [4-Chloro-2-methoxy-3-(2,2,2-trifluoroethoxy)quinolin-6-yl](4-chlorophenyl)(1-methyl-1H-imidazol-5-yl)methanol] yielded an IC50 of 21 nM. As for `Cn1cncc1C(O)(c1ccc(C(F)(F)F)nc1)c1ccc2nc(N3CCC3)c(OCC3CC3)c(Cl)c2c1` (single isomer, unassigned) [Example 87c, [2-Azetidin-1-yl-4-chloro-3-(cyclopropylmethoxy)quinolin-6-yl](1-methyl-1H-imidazol-5-yl)[6-(trifluoromethyl)pyridin-3-yl]methanol], in test [1], the IC50 came to 120 nM.

In turn, `COc1nc2ccc(C(O)(c3ccc(C(F)(F)F)nc3)c3cncn3C)cc2c(Cl)c1OCC1CC1` (single isomer, unassigned) [Example 88c, [4-Chloro-3-(cyclopropylmethoxy)-2-methoxyquinolin-6-yl](1-methyl-1H-imidazol-5-yl)[6-(trifluoromethyl)pyridin-3-yl]methanol] returned an IC50 in test [1] of 310 nM.

Turning to `Cn1cncc1C(O)(c1ccc(C(F)(F)F)nc1)c1ccc2nc(N3CCC3)c(OCC(F)(F)F)c(Cl)c2c1` (single isomer, unassigned) [Example 89c, [2-Azetidin-1-yl-4-chloro-3-(2,2,2-trifluoroethoxy)quinolin-6-yl](1-methyl-1H-imidazol-5-yl)[6-(trifluoromethyl)pyridin-3-yl]methanol], the IC50 in test [1] was found to be 79 nM. For the compound `Cn1cncc1C(O)(c1ccc(Cl)cc1)c1ccc2nc(N3CCC3)c(OCC(F)(F)F)c(Cl)c2c1` (single isomer, unassigned) [Example 90c, [2-Azetidin-1-yl-4-chloro-3-(2,2,2-trifluoroethoxy)quinolin-6-yl](4-chlorophenyl)(1-methyl-1H-imidazol-5-yl)methanol], the IC50 in test [1] amounted to 200 nM. As for `CCOc1c(OC)nc2ccc(C(O)(c3ccc(C(F)(F)F)nc3)c3cncn3C)cc2c1Cl` (single isomer, unassigned) [Example 91c, (4-Chloro-3-ethoxy-2-methoxyquinolin-6-yl)(1-methyl-1H-imidazol-5-yl)[6-(trifluoromethyl)pyridin-3-yl]methanol], in test [1], the IC50 is 520 nM. As to `CC(C)Oc1c(N2CCC2)nc2ccc(C(O)(c3ccc(Cl)cc3)c3cncn3C)cc2c1Cl` (single isomer, unassigned) [Example 94c, [2-Azetidin-1-yl-4-chloro-3-(1-methylethoxy)quinolin-6-yl](4-chlorophenyl)(1-methyl-1H-imidazol-5-yl)methanol], in test [1], the IC50 stood at 380 nM.

`COc1nc2ccc(C(O)(c3ccc(C(F)(F)F)nc3)c3cncn3C)cc2c(Cl)c1OC(C)C` (single isomer, unassigned) [Example 95b, [4-Chloro-2-methoxy-3-(1-methylethoxy)quinolin-6-yl](1-methyl-1H-imidazol-5-yl)[6-(trifluoromethyl)pyridin-3-yl]methanol] showed an IC50 in test [1] of 61 nM.

`COc1nc2ccc(C(O)(c3ccc(Cl)cc3)c3cncn3C)cc2c(Cl)c1OC(C)C` (single isomer, unassigned) [Example 99b, [4-Chloro-2-methoxy-3-(1-methylethoxy)quinolin-6-yl](4-chlorophenyl)(1-methyl-1H-imidazol-5-yl)methanol] yielded an IC50 in test [1] of 1200 nM. In test [1], `COc1nc2ccc(C(O)(c3ccc(Cl)cc3)c3cncn3C)cc2c(Cl)c1CN1CCC(n2cccn2)CC1` (single isomer, unassigned) [Example 101c, (3-((4-(1H-Pyrazol-1-yl)piperidin-1-yl)methyl)-4-chloro-2-methoxyquinolin-6-yl)(4-chlorophenyl)(1-methyl-1H-imidazol-5-yl)methanol] returned an IC50 of 360 nM. As for `COc1nc2ccc(C(O)(c3cncn3C)C3CCN(S(C)(=O)=O)CC3)cc2c(Cl)c1CC1CCOCC1` (centres unmarked) [Example 6a, (4-Chloro-2-methoxy-3-((tetrahydro-2H-pyran-4-yl)methyl)quinolin-6-yl)(1-methyl-1H-imidazol-5-yl)(1-(methylsulfonyl)piperidin-4-yl)methanol], the Kd in test [2] (setting [4]) worked out at 220 nM. Besides, in test [3], the IC50 is > 6000 nM and the inhibition at 6 µM worked out at 26%. In the case of `CC(=O)N1CCC(C(O)(c2ccc3nc(C(F)(F)F)c(C(=O)N4CCCCC4)c(C(F)(F)F)c3c2)c2cncn2C)CC1` (centres unmarked) [Example 9, 1-(4-(Hydroxy(1-methyl-1H-imidazol-5-yl)(3-(piperidine-1-carbonyl)-2,4-bis(trifluoromethyl)quinolin-6-yl)methyl)piperidin-1-yl)ethanone], the Kd in test [2] (setting [4]) worked out at 8200 nM. Besides, in test [3], the IC50 is > 6000 nM and the inhibition at 6 µM came to 16%.

As to `Cc1c(-c2ccc3c(cnn3C)c2)nc2ccc(C(O)(c3cccnc3)c3cccc(Cl)c3)cc2c1Cl` (centres unmarked) [Example 24, [4-Chloro-3-methyl-2-(1-methyl-1H-indazol-5-yl)quinolin-6-yl](3-chlorophenyl)pyridin-3-ylmethanol], the Kd in test [2] (setting [4]) was 2000 nM. Besides, in test [3], the IC50 was > 6000 nM and the inhibition at 6 µM came to 29%. For `Cn1cncc1C(O)(c1ccc(C(F)(F)F)nc1)c1ccc2nc(N3CCC3)c(OCc3ccccc3)c(Cl)c2c1` (centres unmarked) [Example 31, [2-Azetidin-1-yl-3-(benzyloxy)-4-chloroquinolin-6-yl](1-methyl-1H-imidazol-5-yl)[6-(trifluoromethyl)pyridin-3-yl]methanol.TFA] the same measures were 27 nM, > 6000 nM and -32%. With `COc1nc2ccc(C(O)(c3ccc(C(F)(F)F)nc3)c3cncn3C)cc2c(Cl)c1CCC1CCN(C(C)=O)CC1` (centres unmarked) [Example 32, {3-[2-(1-Acetylpiperidin-4-yl)ethyl]-4-chloro-2-methoxyquinolin-6-yl}(1-methyl-1H-imidazol-5-yl)[6-(trifluoromethyl)pyridin-3-yl]methanol], the Kd in test [2] (setting [4]) was found to be 39 nM. For the same compound, in test [3], the IC50 is > 6000 nM and the inhibition at 6 µM is 32%. Regarding `COc1nc2ccc(C(O)(c3ccc(C(F)(F)F)nc3)c3cncn3C)cc2c(Cl)c1C1=CCN(C)CC1` (centres unmarked) [Example 33, [4-Chloro-2-methoxy-3-(1-methyl-1,2,3,6-tetrahydropyridin-4-yl)quinolin-6-yl](1-methyl-1H-imidazol-5-yl)[6-(trifluoromethyl)pyridin-3-yl]methanol.TFA], the Kd in test [2] (setting [4]) was determined as 4800 nM. Moreover, in test [3], the IC50 was > 6000 nM and the inhibition at 6 µM is -32%. Take `COc1nc2ccc(C(O)(c3ccc(C)nc3C)c3cnnn3C)cc2c(Cl)c1OCCS(C)(=O)=O` (centres unmarked) [Example 70a, {4-Chloro-2-methoxy-3-[2-(methylsulfonyl)ethoxy]quinolin-6-yl}(2,6-dimethylpyridin-3-yl)(1-methyl-1H-1,2,3-triazol-5-yl)methanol]: in test [2] (setting [4]), the Kd turned out to be 3300 nM. Moreover, in test [3], the IC50 is > 6000 nM and the inhibition at 6 µM was determined as 36%.

Turning to `COc1nc2ccc(C(O)(c3cnc(C)n3C)c3cnc(C)n3C)cc2c(Cl)c1OCc1ccccc1` [Example 75, [3-(benzyloxy)-4-chloro-2-methoxyquinolin-6-yl][bis(1,2-dimethyl-1H-imidazol-5-yl)]methanol], in test [2] (setting [4]), the Kd is 9 nM. Besides, in test [3], the IC50 was > 6000 nM and the inhibition at 6 µM was -1%. `COc1nc2ccc(C(O)c3cnc(C)n3C)cc2c(Cl)c1OC(C)C` (centres unmarked) [Example 156, (4-chloro-3-isopropoxy-2-methoxyquinolin-6-yl)(1,2-dimethyl-1H-imidazol-5-yl)methanol]: in test [2] (setting [5]), the Kd was 3400 nM. Besides, in test [3], the IC50 was > 6000 nM and the “RORγt (LBD) Reporter Assay, % inhibition” value is 34%. As for `Cc1ncc(C(O)c2ccc3nc(Cl)c(OC(C)C)c(Cl)c3c2)n1C` (centres unmarked) [Example 172, (2,4-dichloro-3-isopropoxyquinolin-6-yl)(1,2-dimethyl-1H-imidazol-5-yl)methanol], the Kd in test [2] (setting [5]) was found to be 12000 nM. For the same compound, in test [3], the IC50 was > 6000 nM and the “RORγt (LBD) Reporter Assay, % inhibition” value came out at 12%. As to `Cc1ccc(C(O)(c2ccc3nc(Cl)c(CC(F)(F)F)c(N4CCC4)c3c2)c2cnnn2C)c(C)n1` (centres unmarked) [Example 238a, [4-(Azetidin-1-yl)-2-chloro-3-(2,2,2-trifluoroethyl)-6-quinolyl]-(2,6-dimethyl-3-pyridyl)-(3-methyltriazol-4-yl)methanol], the Kd in test [2] (setting [5]) is > 24000 nM. In test [3], the IC50 was > 6000 nM and the “RORγt (LBD) Reporter Assay, % inhibition” value was −8%.

In general, IC50 refers to the concentration that gives 50% inhibition. Usually Kd stands for the constant that tells how readily two partners part at equilibrium. As usually defined, the inhibition is the relative decrease from the control value, in per cent.
